Test system: RA-specific antibodies (4 anti-CCP2-positive sera)
Experiment: Indirect (inhibition) ELISA: cross-reactivity of analytes with RA-specific antibodies, immobilized CCP2 as capture antigen
Format: binding, human
Set-up: Cross-reactivity of antibodies with the named analyte: concentration or dose not given beside the values
Settings: for Cross-reactivity (%) of RA-specific antibody, modified α-amino acid: alkylation + acetylation: acetylated amino acid methyl ester of the amino acid named; for Cross-reactivity (%) of RA-specific antibody, modified α-amino acid: alkylation + acetylation / Cross-reactivity (%) of RA-specific antibody, modified α-amino acid: acetylation / Cross-reactivity (%) of RA-specific antibody, modified α-amino acid: alkylation: 0 = less than 1%; for Cross-reactivity (%) of RA-specific antibody, modified α-amino acid: acetylation: acetylated derivative of the amino acid named; for Cross-reactivity (%) of RA-specific antibody, modified α-amino acid: alkylation: methyl esterified (Me) derivative of the amino acid named; for Cross-reactivity (%) of RA-specific antibody, α-amino acid: unmodified α-amino acid, 0 = cross-reactivity less than 1%; for Cross-reactivity of antibodies with the named analyte: the analyte itself is named; for Inhibition of antibody binding to the immobilized CCP2: FIG. 1 and 2, analyte at 50 mM, 4 sera, result in words
Description: A complete set of 21 amino acids and their derivatives were used as analytes to determine if any analyte inhibited the action of the detector antibody in binding to the capture antigen. Determination was made by observation at the single AA level through a series of moving windows of different derivatization. Following this procedure ensures that no antigenic elements of the epitope are missed as long as the possible AA derivatives are available. The analysis began in the fluid phase, wherein initially, the detector antibody was incubated with each of the analytes. After overnight incubation at 4° C., 100 μl of analyte preadsorbed detector antibody per well were added into 96-well microplate which immobilized CCP2 on the surface, and was incubated for 1 hour at room temperature with shaking. […] The reaction was stopped by adding 100 μl of 0.5 M H2SO4 per well and the results were estimated at A450 nm.
The concept of indirect ELISA was based upon an inhibition test between an unknown amount of analyte and a known amount of immobilized antigen for a limited number of detector antibody binding-sites. If the contents of detector antibody and immobilized antigen are kept constant, the distribution of detector antibody between immobilized antigen bound detector antibody and analyte bound detector antibody is dependent upon the amount of sample analyte. The mass of immobilized antigen bound detector antibody is inversely proportional to the amount of analyte bound detector antibody.
(§1) As described in FIG. 1, Amino Acid Profiles for the Antigenic Determinant, ELISA was carried out with sera from Euro-diagnostica (serum 1) and from three patients (serum 2, 3, and 4) with RA to CCP2 positive at various concentrations of different amino acids. […] The horizontal line at 100% represents the control percent binding of the CCP2 to the antibody.
as §1, with “2, Acetylamino” for “1, Amino”, “acetylamino” for “amino”
as §1, with “3, Alkylamino” for “1, Amino”, “alkylamino” for “amino”
as §1, with “4, Acetylamino” for “1, Amino”, “Acid Methyl Ester” for “Acid”, “acetylamino acid methyl esters.” for “amino acids.”

Inhibition of antibody binding to the immobilized CCP2 | Structure (SMILES) | Cross-reactivity (%) of RA-specific antibody, modified α-amino acid: alkylation + acetylation [%] | Cross-reactivity (%) of RA-specific antibody, modified α-amino acid: acetylation [%] | Cross-reactivity (%) of RA-specific antibody, modified α-amino acid: alkylation | Cross-reactivity (%) of RA-specific antibody, α-amino acid [%] | Cross-reactivity of antibodies with the named analyte
– | O=C(O)[C@@H]1CCCN1 [Proline] | 0 | 0 | ^Me0% | 0 | –
– | N[C@@H](Cc1ccccc1)C(=O)O [Phenylalanine] | 0 | 0 | ^Me0% | 0 | –
– | CCCOC(=O)C(N)CCCNC(N)=O (stereo not shown) [Cit-Pe] | – | – | – | – | 115%
– | CSCC[C@H](N)C(=O)O [Methionine] | 0 | 0 | ^Me0% | 0 | 0%
– | NCC(=O)O [Glycine] | 0 | 0 | ^Me0% | 0 | –
– | NC(=O)CC[C@H](N)C(=O)O [Glutamine] | 0 | 0 | ^Me0% | 0 | –
– | COC(=O)[C@@H](N)CCCN=C(N)N [Arg-Me] | – | – | – | – | 6%
– | C[C@H](N)C(=O)O [Alanine] | 0 | 0 | ^Me0% | 0 | –
– | COC(=O)C(N)CCSC (stereo not shown) [Met-Me] | – | – | – | – | 0%
– | COC(=O)[C@@H](N)CO [Ser-Me] | – | – | – | – | 0%
– | CC(=O)N[C@@H](CO)C(=O)O [acetyl-Ser] | – | – | – | – | 0%
– | CC[C@H](C)[C@H](N)C(=O)O [Isoleucine] | 0 | 0 | ^Me0% | 0 | –
– | C[C@@H](O)[C@H](N)C(=O)O [Threonine] | 0 | 0 | ^Me0% | 0 | –
limited inhibition | CC(=O)N[C@@H](CCCN=C(N)N)C(=O)O [acetyl-Arg] | – | – | – | – | 5%
– | COC(=O)[C@H](CS)NC(C)=O [acetyl-Cys-Me] | – | – | – | – | 57%
– | COC(=O)C(CCCNC(N)=O)NC(C)=O (stereo not shown) [acetyl-Cit-Me] | – | – | – | – | 100%
– | CC(C)[C@H](N)C(=O)O [Valanine] | 0 | 0 | ^Me0% | 0 | –
– | COC(=O)[C@@H](N)CS [Cys-Me] | – | – | – | – | 48%
– | N[C@@H](Cc1ccc(O)cc1)C(=O)O [Tyrosine] | 0 | 0 | ^Me0% | 0 | –

Inhibition of antibody binding to the immobilized CCP2 | Structure (SMILES) | Cross-reactivity (%) of RA-specific antibody, modified α-amino acid: alkylation + acetylation [%] | Cross-reactivity (%) of RA-specific antibody, modified α-amino acid: acetylation [%] | Cross-reactivity (%) of RA-specific antibody, modified α-amino acid: alkylation | Cross-reactivity (%) of RA-specific antibody, α-amino acid [%] | Cross-reactivity of antibodies with the named analyte
– | COC(=O)[C@H](CO)NC(C)=O [acetyl-Ser-Me] | – | – | – | – | 0%
– | CCOC(=O)C(N)CCCNC(N)=O (stereo not shown) [Cit-Ee] | – | – | – | – | 72%
– | COC(=O)[C@H](CCCNC(=N)N)NC(C)=O [acetyl-Arg-Me] | – | – | – | – | 13%
– | N[C@@H](CC(=O)O)C(=O)O [Aspartic acid] | 0 | 0 | ^Me0% | 0 | –
– | N[C@@H](CO)C(=O)O [Serine] | 0 | 0 | ^Me0% | 0 | 0%
– | N[C@@H](Cc1c[nH]c2ccccc12)C(=O)O [Tryptophan] | 0 | 0 | ^Me0% | 0 | –
– | NCCCC[C@H](N)C(=O)O [Lysine] | 0 | 0 | ^Me0% | 0 | –
– | CSCCC(NC(C)=O)C(=O)O (stereo not shown) [acetyl-Met] | – | – | – | – | 0%
– | N[C@@H](Cc1c[nH]cn1)C(=O)O [Histidine] | 0 | 0 | ^Me0% | 0 | –
– | N[C@@H](CCC(=O)O)C(=O)O [Glutamic acid] | 0 | 0 | ^Me0% | 0 | –
– | COC(=O)C(N)CCCNC(N)=O (stereo not shown) [Cit-Me] | – | – | – | – | 81%
strong inhibition | CC(=O)N[C@@H](CS)C(=O)O [acetyl-Cys] | – | – | – | – | 50%
– | NC(=O)C[C@H](N)C(=O)O [Asparagine] | 0 | 0 | ^Me0% | 0 | –
– | CC(C)C[C@H](N)C(=O)O [Leucine] | 0 | 0 | ^Me0% | 0 | –
– | CCCCOC(=O)[C@@H](N)CCCNC(N)=O [Cit-Be] | – | – | – | – | 124%
– | N=C(N)NCCC[C@H](N)C(=O)O [Arginine] | 13 | 6 | ^Me5% | 0 | zero
– | COC(=O)[C@H](CCSC)NC(C)=O [acetyl-Met-Me] | – | – | – | – | 0%
limited capability to inhibit | N[C@@H](CS)C(=O)O [Cysteine] | 57 | 48 | ^Me50% | 0 | 0%

Structure (SMILES) | Inhibition of antibody binding to the immobilized CCP2 | Cross-reactivity (%) of RA-specific antibody, modified α-amino acid: alkylation + acetylation [%] | Cross-reactivity (%) of RA-specific antibody, modified α-amino acid: acetylation [%] | Cross-reactivity (%) of RA-specific antibody, modified α-amino acid: alkylation | Cross-reactivity (%) of RA-specific antibody, α-amino acid [%] | Cross-reactivity of antibodies with the named analyte
CC(=O)N[C@@H](CCCNC(N)=O)C(=O)O [acetyl-Cit] | strong inhibition | – | – | – | – | 74%
